In patent publication US20250034144A1, “NEW CRYSTAL FORM OF ERTAPENEM SODIUM AND PREPARATION METHOD THEREFOR” (ASYMCHEM LABORATORIES (TIANJIN) CO., LTD., priority 2021, published 2025):

Key:
[1] = Fluidity related test (densities, Carr index, Hausner ratio, angle of repose); type: physicochemical
Method: (Two) A fluidity related test was carried out on the crystal form A product of ertapenem sodium, the crystal form B product, the crystal form C product, the crystal form D product, the crystal form E product and the amorphous product of ertapenem sodium. [formula] [formula] [table]

[2] = Stability of the product at −18° C. (purity and content over 12 months); type: physicochemical
Method: Data of the stability of the product at −18° C. are shown in Table 2 below: […]

## C[C@@H](O)[C@H]1C(=O)N2C(C(=O)[O-])=C(S[C@@H]3CN[C@H](C(=O)Nc4cccc(C(=O)O)c4)C3)[C@H](C)[C@H]12.[Na+] [Crystal form F, ertapenem sodium]
[1]
  Angle of repose: 23°
  Bulk density: 0.64 g/mL
  Carr index: 10%
  Hausner ratio: 1.11
  Tap density: 0.71 g/mL
[1]; compared with crystal forms A-E and the amorphous product
  Fluidity (in words): better fluidity

## C[C@@H](O)[C@H]1C(=O)N2C(C(=O)[O-])=C(S[C@@H]3CN[C@H](C(=O)Nc4cccc(C(=O)O)c4)C3)[C@H](C)[C@H]12.[Na+] [Example 1, ertapenem sodium]
[2]; 0 month
  Content: 99.2%
  Purity: 99.4%
[2]; 1 month
  Content: 99.2%
  Purity: 99.4%
[2]; 2 months
  Content: 99.2%
  Purity: 99.4%
[2]; 3 months
  Content: 99.2%
  Purity: 99.4%
[2]; 4 months
  Content: 99.2%
  Purity: 99.3%
[2]; 5 months
  Content: 99.1%
  Purity: 99.3%
[2]; 6 months
  Content: 99.1%
  Purity: 99.3%
[2]; 7 months
  Content: 99.1%
  Purity: 99.3%
[2]; 8 months
  Content: 99.1%
  Purity: 99.3%
[2]; 9 months
  Content: 99.1%
  Purity: 99.3%
[2]; 10 months
  Content: 99.1%
  Purity: 99.3%
[2]; 11 months
  Content: 99.0%
  Purity: 99.2%
[2]; 12 months
  Content: 99.0%
  Purity: 99.2%
  Stability of the crystal form product (in words): very stable

## C[C@@H](O)[C@H]1C(=O)N2C(C(=O)[O-])=C(S[C@@H]3CN[C@H](C(=O)Nc4cccc(C(=O)O)c4)C3)[C@H](C)[C@H]12.[Na+] [Crystal form C, ertapenem sodium]
[1]
  Angle of repose: 43°
  Bulk density: 0.63 g/mL
  Carr index: 19%
  Hausner ratio: 1.24
  Tap density: 0.78 g/mL

## C[C@@H](O)[C@H]1C(=O)N2C(C(=O)[O-])=C(S[C@@H]3CN[C@H](C(=O)Nc4cccc(C(=O)O)c4)C3)[C@H](C)[C@H]12.[Na+] [Crystal form A, ertapenem sodium]
[1]
  Angle of repose: 43°
  Bulk density: 0.64 g/mL
  Carr index: 22%
  Hausner ratio: 1.28
  Tap density: 0.82 g/mL

## C[C@@H](O)[C@H]1C(=O)N2C(C(=O)[O-])=C(S[C@@H]3CN[C@H](C(=O)Nc4cccc(C(=O)O)c4)C3)[C@H](C)[C@H]12.[Na+] [Crystal form D, ertapenem sodium]
[1]
  Angle of repose: 47°
  Bulk density: 0.64 g/mL
  Carr index: 21%
  Hausner ratio: 1.27
  Tap density: 0.81 g/mL

## C[C@@H](O)[C@H]1C(=O)N2C(C(=O)[O-])=C(S[C@@H]3CN[C@H](C(=O)Nc4cccc(C(=O)O)c4)C3)[C@H](C)[C@H]12.[Na+] [Crystal form B, ertapenem sodium]
[1]
  Angle of repose: 41°
  Bulk density: 0.63 g/mL
  Carr index: 20%
  Hausner ratio: 1.25
  Tap density: 0.79 g/mL

## C[C@@H](O)[C@H]1C(=O)N2C(C(=O)[O-])=C(S[C@@H]3CN[C@H](C(=O)Nc4cccc(C(=O)O)c4)C3)[C@H](C)[C@H]12.[Na+] [Example 2, ertapenem sodium]
[2]; 0 month
  Content: 99.1%
  Purity: 99.2%
[2]; 1 month
  Content: 99.1%
  Purity: 99.2%
[2]; 2 months
  Content: 99.1%
  Purity: 99.2%
[2]; 3 months
  Content: 99.1%
  Purity: 99.2%
[2]; 4 months
  Content: 99.1%
  Purity: 99.2%
[2]; 5 months
  Content: 99.0%
  Purity: 99.1%
[2]; 6 months
  Content: 99.0%
  Purity: 99.1%
[2]; 7 months
  Content: 99.0%
  Purity: 99.1%
[2]; 8 months
  Content: 99.0%
  Purity: 99.1%
[2]; 9 months
  Content: 99.0%
  Purity: 99.1%
[2]; 10 months
  Content: 99.0%
  Purity: 99.0%
[2]; 11 months
  Content: 99.0%
  Purity: 99.0%
[2]; 12 months
  Content: 99.0%
  Purity: 99.0%
  Stability of the crystal form product (in words): very stable

## C[C@@H](O)[C@H]1C(=O)N2C(C(=O)[O-])=C(S[C@@H]3CN[C@H](C(=O)Nc4cccc(C(=O)O)c4)C3)[C@H](C)[C@H]12.[Na+] [Amorphous, ertapenem sodium]
[1]
  Angle of repose: 47°
  Bulk density: 0.63 g/mL
  Carr index: 20%
  Hausner ratio: 1.25
  Tap density: 0.79 g/mL

## C[C@@H](O)[C@H]1C(=O)N2C(C(=O)[O-])=C(S[C@@H]3CN[C@H](C(=O)Nc4cccc(C(=O)O)c4)C3)[C@H](C)[C@H]12.[Na+] [Crystal form E, ertapenem sodium]
[1]
  Angle of repose: 46°
  Bulk density: 0.66 g/mL
  Carr index: 20%
  Hausner ratio: 1.26
  Tap density: 0.83 g/mL
